This is an account of results in patent US20210317141A1, “OXOPYRIDO[1,2-A]PYRIMIDINE COMPOUNDS FOR THE TREATMENT AND PROPHYLAXIS OF BACTERIAL INFECTION” (Hoffmann-La Roche Inc., priority 2018, published 2021).

Data set [1] is described as follows: Cytotoxicity assay (HepG2, CellTiter-Blue). The data set is classed as cell-based. Conditions: human, HepG2 cells, 3 days treatment. As for the experimental part: The cytotoxicity of compounds of present invention was assessed by HepG2 assay. HepG2 cells (ATCC HB-8065™) were seeded into 96-well plates (1.2×10^4 cells per well) and treated with compounds for 3 days, cell viability was measured at day 3 post compound treatment using the CellTiter-Blue® Cell Viability Assay (Promega, Cat. No. G8082). 20 μL of Cell titer blue buffer were added to each well of the cells, incubated for 3 hours at 37° C., and the fluorescence value was measured by a plate reader (Molecular Device SpectraMax M2). The CC50 value of each compound is plotted with GraphPad Prism using four parameter logistic equation.

The nature of data set [2]: Lyophilisation solubility assay (LYSA). The class given is physicochemical. As to conditions: aqueous buffer, thermodynamic from solid; 0.05 M phosphate buffer, pH 6.5; * = detection limit. As for the experimental part:
The solubility of compounds of present invention was assessed by LYSA assay. Samples were prepared in duplicate from 10 mM DMSO stock solutions (20 μL) diluted in 30 μL pure DMSO. After evaporation of DMSO with a centrifugal vacuum evaporator, the residue was dissolved in 0.05 M phosphate buffer (150 μL, pH 6.5), stirred for one hour and shook for two hours. After one night, the solution was filtered using a microtiter filter plate. Then the filtrate and its 1/10 dilution were analyzed by HPLC-UV. In addition, a four-point calibration curve was prepared from the 10 mM stock solutions and used for the solubility determination of the compounds.

Data set [3] concerns E. coli (BW25113). Nature of the data set: 50% growth inhibitory concentration (IC50) determination assay, E. coli. The class given is cell-based. As to conditions: Escherichia coli, growth inhibition, Iso-Sensitest broth, OD 600 nm over 16 h, 35±2° C., read-out: IC50 (μM) E. coli K12 BW25113. The procedure: (§1) The in vitro antimicrobial activity of the compounds against E. coli (BW25113, obtained from Coli Genetic Stock Center, #7636) and K. pneumoniae (ATCC10031) was determined according to the following procedure:
(§2) The assay used a 10-points Iso-Sensitest broth medium to measure quantitatively the in vitro activity of the compounds against E. coli BW25113 and K. pneumoniae ATCC 10031.
(§3) Stock compounds in DMSO were serially two-fold diluted (range from 50 to 0.097 μM final concentration) in 384 wells microtiter plates and inoculated with 49 μL the bacterial suspension in Iso-Sensitest broth medium to have a final cell concentration of ˜5×10^5 CFU/mL in a final volume/well of 50 μL/well. Microtiter plates were incubated at 35±2° C.
(§4) Bacterial cell growth was determined with the measurement of optical density at k=600 nm each 20 minutes over a time course of 16 h.
(§5) Growth inhibition was calculated during the logarithmic growth of the bacterial cells with determination of the concentration inhibiting 50% (IC50) of the growth.

Data set [4] deals with E. coli (ATCC 25922). In words: Minimal Inhibitory Concentration (MIC) assay. The data set is classed as cell-based. Conditions: Escherichia coli, ATCC25922; CAMHB, 20 hours at 35° C.; read-out: MIC (μg/mL) E. coli ATCC 25922. The procedure:
The in vitro potency of compounds to inhibit E. coli (ATCC 25922) growth was assessed by MIC (Minimal Inhibitory Concentration) assay. Samples were prepared from 10 mM DMSO stock solutions. After serial 2-fold dilution in DMSO in a master plate (Greiner, Cat No: 651201), 180 μL sterile distilled water was added to 20 μL each aliquot of the samples. Then […], diluted compounds were transferred into a new assay plate (Costar, 3599).
The growth medium […] Mueller Hinton Broth (CAMHB) was prepared by adding the 20 mg per liter CaCl2) and 20 mg per liter MgCl2 into the MHB medium (Jianglai Company, sterilized).
Vials of each of the test microorganisms were maintained frozen in the vapor phase of a liquid nitrogen freezer. Took out the bacteria E. coli ATCC 25922 (KWIKSTIK, 0335K) from liquid nitrogen freezer, thawed it in room temperature, and diluted the bacterial in the CAMHB medium to achieve a final inoculum of 5×10^5 CFU/mL. 90 μL CAMHB with bacteria was dispensed to the assay plate and pipetted 5 times.
Then the assay plates were incubated for 20 hours at 35° C. in ambient air. Following incubation, the MIC (μg/mL), the lowest concentration of drug that inhibits visible growth of the microorganism was read and recorded throw the microscope.

The subject of data set [5] is K. pneumoniae (ATCC10031). Nature of the data set: 50% growth inhibitory concentration (IC50) determination assay, K. pneumoniae. The class given is cell-based. Conditions: Klebsiella pneumoniae, growth inhibition, Iso-Sensitest broth, OD 600 nm over 16 h, * = detection limit. As for the experimental part: as §1, §2, §3, §4, §5

Values after ≈ are worked out from the molar mass of the structure shown.

Turning to `CNc1cc(F)c(F)c2c1[nH]c1ncc(-c3ccc4ncc(C(=O)O)c(=O)n4c3)c(N(C)C)c12` [Example 1.01, 7-[4-(Dimethylamino)-5,6-difluoro-8-(methylamino)-9H-pyrido[2,3-b]indol-3-yl]-4-oxo-pyrido[1,2-a]pyrimidine-3-carboxylic Acid], in data set [1], the cytotoxic concentration (CC50) (commonly the concentration that lowers cell viability or growth by half) at 3 days was found to be 45900 nM. Besides, in data set [2], the solubility (thermodynamic) (in general, solubility found after equilibrating the solid with the medium) is 30 µg/mL (≈ 64.6 µM). The IC50 (commonly the concentration that gives 50% inhibition) in data set [3] came out at 0.906 µM. Moreover, in data set [4], the MIC was determined as 0.0183 µg/mL (≈ 0.0394 µM).

`CNc1cc(F)cc2c1[nH]c1ncc(-c3cc(C)c4ncc(C(=O)O)c(=O)n4c3)c(N(C)C)c12` [Example 1.05, 7-[4-(Dimethylamino)-6-fliioro-8-(methylamino)-9H-pyrido[2,3-b]indol-3-yl]-9-methyl-4-oxo-pyrido[1,2-a]pyrimidine-3-carboxylic acid] gave a CC50 at 3 days in data set [1] of 34000 nM. Besides, the values for the IC50 in data set [5] and in data set [3] were 0.221 µM and 2.06 µM, respectively. Also, in data set [4], the MIC came out at 0.576 µg/mL (≈ 1.25 µM).

In turn, `CNc1cc(F)c(F)c2c1[nH]c1ncc(-c3ccc4ncc(C(=O)O)c(=O)n4c3)c(N(C)CC(F)(F)F)c12` [Example 1.09, 7-(5,6-Difluoro-4-(methyl(2,2,2-trifluoroethyl)amino)-8-(methylamino)-9H-pyrido[2,3-b]indol-3-yl)-4-oxo-4H-pyrido[1,2-a]pyrimidine-3-carboxylic acid] displayed a 50% cytotoxic concentration (CC50) at 3 days in data set [1] of 33400 nM. For the same molecule, the concentration for half-maximal inhibition (IC50) in data set [5] amounted to 0.284 µM; in data set [3] it was 2.57 µM. In data set [4], the MIC turned out to be 0.808 µg/mL (≈ 1.52 µM).

In data set [1], `CNc1c(F)c(F)cc2c1[nH]c1ncc(-c3ccc4ncc(C(=O)O)c(=O)n4c3)c(N(C)C)c12` [Example 1.12, 7-(4-(Dimethylamino)-6,7-difluoro-8-(methylamino)-9H-pyrido[2,3-b]indol-3-yl)-4-oxo-4H-pyrido[1,2-a]pyrimidine-3-carboxylic] registered a 50% cytotoxic concentration (CC50) at 3 days of 29900 nM. Moreover, the 50% inhibitory concentration (IC50) was at most 0.098 µM in data set [5] and 0.442 µM in data set [3]. For the same molecule, the MIC in data set [4] was determined as 0.0212 µg/mL (≈ 0.0456 µM).

In data set [1], `CNc1cc(F)c(F)c2c1[nH]c1ncc(-c3cc(CN(C)C)c4ncc(C(=O)O)c(=O)n4c3)c(N3CCOCC3)c12` [Example 1.14, 7-(5,6-Difluoro-8-(methylamino)-4-morpholino-9H-pyrido[2,3-b]indol-3-yl)-9-((dimethylamino)methyl)-4-oxo-4H-pyrido[1,2-a]pyrimidine-3-carboxylic acid] showed a 50% cytotoxic concentration (CC50) at 3 days of over 100000 nM. This molecule also displayed a solubility (thermodynamic) in data set [2] of 315 µg/mL (≈ 559 µM). Moreover, the concentration for half-maximal inhibition (IC50) in data set [5] came to 0.197 µM; in data set [3], 8.58 µM.

`CNc1cc(F)c(F)c2c1[nH]c1ncc(-c3ccc4ncc(C(=O)O)c(=O)n4c3)c(N3CCC(F)(CN(C)C)C3)c12` (stereo not shown) [Example 1.18, 7-(4-(3-((Dimethylamino)methyl)-3-fluoropyrrolidin-1-yl)-5,6-difluoro-8-(methylamino)-9H-pyrido[2,3-b]indol-3-yl)-4-oxo-4H-pyrido[1,2-a]pyrimidine-3-carboxylic acid] had a CC50 at 3 days in data set [1] of over 100000 nM. The molecule also registered a solubility (thermodynamic) in data set [2] of 200 µg/mL (≈ 354 µM). In addition, the MIC in data set [4] came out at 0.398 µg/mL (≈ 0.704 µM).

The molecule `CNc1cc(F)cc2c1[nH]c1ncc(-c3ccc4ncc(C(=O)O)c(=O)n4c3)c(N3CCC(CN(C)C4CC4)C3)c12` (stereo not shown) [Example 1.21, 7-(4-(3-((cyclopropyl(methyl)amino)methyl)pyrrolidin-1-yl)-6-fluoro-8-(methylamino)-9H-pyrido[2,3-b]indol-3-yl)-4-oxo-4H-pyrido[1,2-a]pyrimidine-3-carboxylic acid] gave a solubility (thermodynamic) in data set [2] of 230 µg/mL (≈ 414 µM). Further, the concentration for half-maximal inhibition (IC50) in data set [5] came out at 0.155 µM; in data set [3], 4.78 µM. Moreover, in data set [4], the MIC turned out to be 0.392 µg/mL (≈ 0.706 µM).

With `CNc1c(F)c(F)cc2c1[nH]c1ncc(-c3ccc4ncc(C(=O)O)c(=O)n4c3)c(N3CCC[C@H]3CN(C)C)c12` [Example 1.26, (S)-7-(4-(2-((Dimethylamino)methyl)pyrrolidin-1-yl)-6,7-difluoro-8-(methylamino)-9H-pyrido[2,3-b]indol-3-yl)-4-oxo-4H-pyrido[1,2-a]pyrimidine-3-carboxylic acid], the 50% cytotoxic concentration (CC50) at 3 days in data set [1] is over 100000 nM. The same molecule showed a thermodynamic solubility in data set [2] of over 770 µg/mL.

As for `CCNc1cc(F)cc2c1[nH]c1ncc(-c3ccn4c(=O)c(C(=O)O)cnc4c3)c(-n3ccc(C(F)(F)F)n3)c12` [Example 1.31, 8-[8-(Ethylamino)-6-fluoro-4-[3-(trifluoromethyl)pyrazol-1-yl]-9H-pyrido[2,3-b]indol-3-yl]-4-oxo-pyrido[1,2-a]pyrimidine-3-carboxylic acid], it took 30800 nM to reach half-maximal cytotoxicity in data set [1] (CC50 at 3 days).

Molecule `CNc1cc(F)cc2c1[nH]c1ncc(-c3ccc4ncc(C(=O)O)c(=O)n4c3)c(C#N)c12` [Example 1.34, 7-[4-Cyano-6-fluoro-8-(methylamino)-9H-pyrido[2,3-b]indol-3-yl]-4-oxo-pyrido[1,2-a]pyrimidine-3-carboxylic acid] came in with a half-maximal cytotoxic concentration (CC50) at 3 days in data set [1] of over 100000 nM. For the same molecule, the MIC in data set [4] turned out to be 0.364 µg/mL (≈ 0.85 µM).

In the case of `CNc1cc(F)c(F)c2c1[nH]c1ncc(-c3cc(CN4CCOCC4)c4ncc(C(=O)O)c(=O)n4c3)c(N(C)C)c12` [Example 2.01, 7-[4-(Dimethylamino)-5,6-difluoro-8-(methylamino)-9H-pyrido[2,3-b]indol-3-yl]-9-(morpholinomethyl)-4-oxo-pyrido[1,2-a]pyrimidine-3-carboxylic Acid], in data set [2], the solubility (thermodynamic) was 36 µg/mL (≈ 63.9 µM). The IC50 in data set [5] is at most 0.098 µM; in data set [3], 0.523 µM. Also, the MIC in data set [4] stood at 0.0223 µg/mL (≈ 0.0396 µM).

For `CNc1cc(F)c(F)c2c1[nH]c1ncc(-c3cc(CN(C)CCOC)c4ncc(C(=O)O)c(=O)n4c3)c(N(C)C)c12` [Example 2.02, 7-[4-(Dimethylamino)-5,6-difluoro-8-(methylamino)-9H-pyrido[2,3-b]indol-3-yl]-9-[[2-methoxyethyl(methyl)amino]methyl]-4-oxo-pyrido[1,2-a]pyrimidine-3-carboxylic acid], in data set [2], the thermodynamic solubility is 255 µg/mL (≈ 451 µM). Also, the IC50 in data set [5] was at most 0.098 µM; in data set [3] it was 0.738 µM. Besides, the MIC in data set [4] came out at 0.0996 µg/mL (≈ 0.176 µM).

As to `CNc1cc(F)c(F)c2c1[nH]c1ncc(-c3cc(CN4CCCC4)c4ncc(C(=O)O)c(=O)n4c3)c(N(C)C)c12` [Example 2.03, 7-[4-(Dimethylamino)-5,6-difluoro-8-(methylamino)-9H-pyrido[2,3-b]indol-3-yl]-4-oxo-9-(pyrrolidin-1-ylmethyl)pyrido[1,2-a]pyrimidine-3-carboxylic acid], the thermodynamic solubility in data set [2] amounted to 51 µg/mL (≈ 93.1 µM). Further, the IC50 in data set [5] is at most 0.098 µM; in data set [3], 0.748 µM. Also, the MIC in data set [4] is 0.194 µg/mL (≈ 0.354 µM).

`CNc1cc(F)c(F)c2c1[nH]c1ncc(-c3cc(CN4CCOCC4)c4ncc(C(=O)O)c(=O)n4c3)c(N3CCCC3)c12` [Example 2.04, 7-[5,6-Difluoro-8-(methylamino)-4-pyrrolidin-1-yl-9H-pyrido[2,3-b]indol-3-yl]-9-(morpholinomethyl)-4-oxo-pyrido[1,2-a]pyrimidine-3-carboxylic acid] had a thermodynamic solubility in data set [2] of 91 µg/mL (≈ 154 µM). Also, the IC50 in data set [5] was 0.22 µM; in data set [3], 1.21 µM. Also, in data set [4], the MIC was 0.0432 µg/mL (≈ 0.0733 µM).

In data set [1], `CNc1cc(F)cc2c1[nH]c1ncc(-c3ccc4ncc(C(=O)O)c(=O)n4c3)c(N3CCC(F)(F)C3)c12` [Example 2.05, 7-(4-(3,3-Difluoropyrrolidin-1-yl)-6-fluoro-8-(methylamino)-9H-pyrido[2,3-b]indol-3-yl)-4-oxo-4H-pyrido[1,2-a]pyrimidine-3-carboxylic acid] yielded a CC50 at 3 days of 31800 nM. This counts as double-digit micromolar.
